From US20230293599A1, “BACTERIAL COMPOSITIONS WITH ANTI-INFLAMMATORY ACTIVITY” (Universiteit Gent, priority 2020, published 2023)
Where two headings read alike, the source gives them in different places. Residues, ends and D or L forms follow the SMILES beside them.

What was measured:
[1] = test system: S. aureus; assay type: cell-based, Staphylococcus aureus
Summary of the method: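 Growth on 190 carbon sources in Biolog PM1 and PM2 panels, inoculated per manufacturer's protocol. Growth curves followed for 35 hours by absorbance at 590 nm.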

[2] = test system: G. haemolysans; experiment: Biolog Phenotype Microarray PM1-2 growth on carbon sources; assay type: cell-based, Gemella haemolysans; conditions: for growth of G. haemolysans on the carbon source (in words): AUC lower than 50 = not supporting growth
Protocol: (§1) Using Phenotype Microarray (PM) panels (Biolog), the influence of 190 carbon sources on the growth of the potential probiotic species R. mucilaginosa, R. dentocariosa, R. gilardii, G. haemolysans, and common respiratory pathogens P. aeruginosa, and S. aureus was determined. PM1 and PM2 panels (Biolog) were inoculated according to the manufacturer's instructions. Growth curves were generated for 35 hours by measuring the absorbance at 590 nm using an EnVision (Perkin Elmer) plate reader.

[3] = test system: R. gilardii; experiment: as above; assay type: cell-based, Roseomonas gilardii
Protocol: as §1

[4] = test system: P. aeruginosa; experiment: as above; assay type: cell-based, Pseudomonas aeruginosa; conditions: for growth of P. aeruginosa on the carbon source (in words): AUC lower than 50 = not supporting growth
Protocol: as §1

[5] = test system: R. dentocariosa; experiment: as above; assay type: cell-based, Rothia dentocariosa
Protocol: as §1

[6] = test system: R. mucilaginosa; experiment: as above; assay type: cell-based, Rothia mucilaginosa
Protocol: as §1

[7] = 35 hours, absorbance 590 nm, n = 1, cells without values AUC < 50

Molecule | AUC of growth curve, S. aureus [1] | AUC of growth curve, G. haemolysans [2, 7] | AUC of growth curve, R. gilardii [3, 7] | AUC of growth curve, P. aeruginosa [4, 7] | AUC of growth curve, R. dentocariosa [5, 7] | AUC of growth curve, R. mucilaginosa [6, 7] | further results
CC(O)C(C)O (centres unmarked) [2,3-Butanediol] | 147.2 | 145.4 |  |  |  |  | 
O=CC[C@H](O)[C@H](O)CO [2-Deoxy-D-Ribose] | 580.2 | 180.3 | 366.7 | 529.9 | 376.6 |  | 
O=C(CO)[C@@H](O)[C@H](O)[C@@H](O)C(=O)O [5-Keto-D-Gluconic Acid] | 432.1 |  |  |  |  |  | AUC of growth curve, R. gilardii [3]: 423.9; AUC of growth curve, G. haemolysans [2]: 122.8; AUC of growth curve, P. aeruginosa [4]: 1312.5; AUC of growth curve, R. dentocariosa [5]: 277.0
Nc1ncnc2c1ncn2[C@@H]1O[C@H](CO)[C@@H](O)[C@H]1O [Adenosine] | 472.6 | 65.6 |  | 398.1 |  |  | 
O=C[C@@H](O)[C@H](O)[C@H](O)CO [D-Arabinose] | 705.0 | 88.1 | 356.3 | 763.4 | 305.6 |  | 
O=C(CO)[C@@H](O)[C@H](O)[C@H](O)COP(=O)(O)O [D-Fructose-6-Phosphate] | 437.8 | 134.2 |  | 783.8 | 87.1 | 127.5 | 
O=C(CO)[C@@H](O)[C@H](O)[C@H](O)CO [D-Fructose] | 992.9 |  |  |  |  |  | AUC of growth curve, R. gilardii [3]: 315.8; AUC of growth curve, G. haemolysans [2]: 88.8; AUC of growth curve, P. aeruginosa [4]: 413.3; AUC of growth curve, R. mucilaginosa [6]: 1111.2; AUC of growth curve, R. dentocariosa [5]: 109.5
N[C@H]1C(O)O[C@H](CO)[C@@H](O)[C@@H]1O (stereo partly drawn) [D-Glucosamine] | 884.6 | 618.4 | 196.5 | 840.0 | 200.6 |  | 
O=C[C@@H](O)[C@@H](O)[C@H](O)[C@H](O)CO [D-Mannose] | 729.5 | 218.6 |  | 495.0 | 106.1 | 1017.6 | 
O=C[C@H](O)[C@H](O)[C@H](O)CO [D-Ribose] | 769.0 | 627.5 | 718.5 | 1450.3 | 431.1 | 371.4 | 
O=C[C@H](O)[C@@H](O)[C@H](O)CO [D-Xylose] | 92.4 | 581.3 | 310.4 | 1218.3 | 257.9 | 157.4 | 
NC(=O)[C@@H](O)[C@@H](O)[C@H](O)[C@@H](O)C=O [Glucuronamide] | 62.8 | 97.6 | 53.3 | 820.8 | 124.2 | 84.9 | 
C[C@H](N)C(=O)NCC(=O)O [L-Alanyl-Glycine] (H-Ala-Gly-OH) | 809.1 |  |  |  |  |  | AUC of growth curve, R. gilardii [3]: 76.2; AUC of growth curve, G. haemolysans [2]: 114.6; AUC of growth curve, P. aeruginosa [4]: 180.2
O=C[C@H](O)[C@@H](O)[C@@H](O)CO [L-Arabinose] | 356.7 | 120.4 | 804.7 | 1269.0 | 314.8 | 195.3 | 
C[C@H](O)[C@@H](O)[C@@H](O)[C@H](O)C=O [L-Fucose] | 277.6 | 95.6 | 86.6 | 701.4 | 478.0 | 155.6 | 
O=C[C@H](O)[C@H](O)[C@@H](O)CO [L-Lyxose] | 308.4 | 430.7 | 765.9 | 1393.5 | 474.8 | 377.5 | 
O=C(O)C[C@H](O)C(=O)O [L-Malic Acid] | 648.8 | 73.9 | 202.5 | 808.2 |  |  | 
N[C@@H](Cc1ccccc1)C(=O)O [L-Phenylalanine] | 167.3 | 64.4 |  |  |  |  | 
C[C@H](O)[C@H](O)[C@@H](O)[C@@H](O)C=O [L-Rhamnose] | 423.5 | 104.6 | 178.6 | 265.3 | 149.9 | 197.8 | 
COC(=O)C(C)=O [Methyl Pyruvate] | 611.5 | 870.9 |  | 818.7 | 74.1 |  | 
CC(=O)N[C@H]1C(O)O[C@H](CO)[C@@H](O)[C@@H]1O (stereo partly drawn) [N-Acetyl-D-Glucosamine] | 643.5 | 711.9 |  |  |  |  | growth of G. haemolysans on the carbon source (in words) [2]: supported growth; growth of P. aeruginosa on the carbon source (in words) [4]: did not support growth
CC(=O)N[C@H]1[C@@H](O)[C@H](O)[C@@H](CO)O[C@H]1O [N-Acetyl-β-D-Mannosamine] | 738.3 | 375.8 |  |  |  |  | growth of G. haemolysans on the carbon source (in words) [2]: supported growth; growth of P. aeruginosa on the carbon source (in words) [4]: did not support growth
CC(=O)C(=O)O [Pyruvic Acid] | 763.0 | 552.9 | 215.7 | 877.9 | 343.3 | 205.5 | 
C/C=C/C=C/C(=O)O [Sorbic Acid] | 495.2 | 90.3 | 56.2 |  | 82.4 |  | 
OC[C@H]1O[C@H](O)[C@H](O)[C@@H](O)[C@@H]1O [α-D-Glucose] | 966.1 | 1140.8 | 115.5 | 830.2 | 1288.0 | 1068.2 | 
Dextrin |  | 66.1 |  |  | 135.6 |  | AUC of growth curve, S. aureus [1, 7]: 908.1; growth of P. aeruginosa on the carbon source (in words) [4]: did not support growth; growth of R. dentocariosa on the carbon source (in words) ([5]; AUC lower than 50 = not supporting growth): stimulated only the growth
Pectin |  | 68.6 | 141.7 | 334.5 | 683.6 | 199.5 | AUC of growth curve, S. aureus [1, 7]: 996.1
Tween 40 | 154.9 | 101.2 |  |  |  |  | 
